From the supplement of paper PMC12463676, “Small-molecule dissolution of stress granules by redox modulation benefits ALS models” (Nature Chemical Biology, 2025)

How the values were obtained:
[1] = compound: NC(=O)CCCCC1CCSS1 [lipoamide]; test: thermal stability z-score vs DMSO; higher = more thermally stabilized by treatment; settings: HeLa, lipoamide concentration 100 µM
Procedure: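 Cellular thermal proteome profiling in HeLa cells. Cells were treated with 100 µM lipoamide for 1 h, with or without 1 mM arsenate for a further 1 h, then heated to ten temperatures (37-66.3 °C), and soluble protein was quantified by TMT mass spectrometry relative to 0.1% DMSO controls. The thermal stability score (sum of log2 fold changes minus the abundance score) was transformed to a z-score; mean of n = 3 experiments.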

[2] = compound: O=[As]([O-])(O)O.[K+] [potassium arsenate]; test: as above; settings: HeLa; arsenate concentration 1 mM
Procedure: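 Cellular thermal proteome profiling in HeLa cells treated with 1 mM arsenate for 1 h (DMSO pretreatment), heated to ten temperatures (37-66.3 °C). Soluble protein was quantified by TMT mass spectrometry relative to DMSO controls; the thermal stability score was transformed to a z-score; mean of n = 3 experiments.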

[3] = arsenate co-treatment: 1 mM arsenate 1 h
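Also: each temperature applied for 3 min, abundance score taken as mean log2 fold change at the two lowest temperatures, z-score obtained by mean subtraction and division by SD.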

Chain of UniProt Q9ULR0 (Q9ULR0 whole entry): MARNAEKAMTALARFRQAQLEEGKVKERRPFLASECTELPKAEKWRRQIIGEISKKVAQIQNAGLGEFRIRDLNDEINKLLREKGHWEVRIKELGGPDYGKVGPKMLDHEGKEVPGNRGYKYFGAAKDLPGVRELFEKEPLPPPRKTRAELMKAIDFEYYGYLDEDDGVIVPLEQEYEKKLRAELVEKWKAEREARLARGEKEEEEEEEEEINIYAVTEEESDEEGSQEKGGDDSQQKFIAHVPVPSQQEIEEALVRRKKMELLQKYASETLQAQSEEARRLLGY
Chain of UniProt Q969E2 (Q969E2 whole entry): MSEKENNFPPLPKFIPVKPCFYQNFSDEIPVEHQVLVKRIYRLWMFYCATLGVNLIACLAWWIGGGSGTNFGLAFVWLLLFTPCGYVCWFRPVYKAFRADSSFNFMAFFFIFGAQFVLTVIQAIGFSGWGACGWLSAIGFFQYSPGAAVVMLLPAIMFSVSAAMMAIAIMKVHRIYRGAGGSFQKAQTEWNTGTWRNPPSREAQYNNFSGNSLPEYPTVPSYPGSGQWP
Chain of UniProt P33993 (P33993 whole entry): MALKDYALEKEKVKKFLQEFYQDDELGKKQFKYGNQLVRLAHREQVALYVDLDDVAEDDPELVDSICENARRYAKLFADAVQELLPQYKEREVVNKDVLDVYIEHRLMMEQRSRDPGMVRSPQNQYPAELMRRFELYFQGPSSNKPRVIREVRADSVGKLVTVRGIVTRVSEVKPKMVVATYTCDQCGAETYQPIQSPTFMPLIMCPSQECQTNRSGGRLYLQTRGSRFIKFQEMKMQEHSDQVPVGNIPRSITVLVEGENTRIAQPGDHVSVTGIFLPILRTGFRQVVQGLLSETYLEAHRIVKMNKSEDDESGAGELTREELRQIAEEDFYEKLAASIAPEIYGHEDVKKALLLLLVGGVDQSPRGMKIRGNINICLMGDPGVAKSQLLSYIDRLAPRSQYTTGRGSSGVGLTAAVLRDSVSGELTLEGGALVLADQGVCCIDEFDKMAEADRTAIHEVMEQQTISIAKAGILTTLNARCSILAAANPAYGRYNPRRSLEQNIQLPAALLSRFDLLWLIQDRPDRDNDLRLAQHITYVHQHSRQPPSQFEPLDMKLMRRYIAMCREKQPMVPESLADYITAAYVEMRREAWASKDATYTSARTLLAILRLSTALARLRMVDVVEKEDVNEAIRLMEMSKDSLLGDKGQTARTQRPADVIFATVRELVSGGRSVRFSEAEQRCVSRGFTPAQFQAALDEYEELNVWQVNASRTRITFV
Chain of UniProt O14949 (O14949 whole entry): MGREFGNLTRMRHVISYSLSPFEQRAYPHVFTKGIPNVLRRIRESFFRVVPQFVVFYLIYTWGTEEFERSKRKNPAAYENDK
Chain of UniProt Q9Y4P8 (Q9Y4P8 whole entry): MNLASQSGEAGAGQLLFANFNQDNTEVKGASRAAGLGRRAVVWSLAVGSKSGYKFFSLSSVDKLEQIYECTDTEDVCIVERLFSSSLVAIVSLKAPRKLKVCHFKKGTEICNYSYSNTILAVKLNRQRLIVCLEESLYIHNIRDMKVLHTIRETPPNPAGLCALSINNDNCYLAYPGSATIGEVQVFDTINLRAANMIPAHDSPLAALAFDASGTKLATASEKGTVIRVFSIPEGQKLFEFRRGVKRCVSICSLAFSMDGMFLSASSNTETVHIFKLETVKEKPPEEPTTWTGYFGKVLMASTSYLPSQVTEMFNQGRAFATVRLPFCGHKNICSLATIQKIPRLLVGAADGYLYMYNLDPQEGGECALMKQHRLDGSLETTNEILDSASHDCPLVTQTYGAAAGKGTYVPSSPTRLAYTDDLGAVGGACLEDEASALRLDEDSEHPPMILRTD
Chain of UniProt Q9UKM7 (Q9UKM7 whole entry): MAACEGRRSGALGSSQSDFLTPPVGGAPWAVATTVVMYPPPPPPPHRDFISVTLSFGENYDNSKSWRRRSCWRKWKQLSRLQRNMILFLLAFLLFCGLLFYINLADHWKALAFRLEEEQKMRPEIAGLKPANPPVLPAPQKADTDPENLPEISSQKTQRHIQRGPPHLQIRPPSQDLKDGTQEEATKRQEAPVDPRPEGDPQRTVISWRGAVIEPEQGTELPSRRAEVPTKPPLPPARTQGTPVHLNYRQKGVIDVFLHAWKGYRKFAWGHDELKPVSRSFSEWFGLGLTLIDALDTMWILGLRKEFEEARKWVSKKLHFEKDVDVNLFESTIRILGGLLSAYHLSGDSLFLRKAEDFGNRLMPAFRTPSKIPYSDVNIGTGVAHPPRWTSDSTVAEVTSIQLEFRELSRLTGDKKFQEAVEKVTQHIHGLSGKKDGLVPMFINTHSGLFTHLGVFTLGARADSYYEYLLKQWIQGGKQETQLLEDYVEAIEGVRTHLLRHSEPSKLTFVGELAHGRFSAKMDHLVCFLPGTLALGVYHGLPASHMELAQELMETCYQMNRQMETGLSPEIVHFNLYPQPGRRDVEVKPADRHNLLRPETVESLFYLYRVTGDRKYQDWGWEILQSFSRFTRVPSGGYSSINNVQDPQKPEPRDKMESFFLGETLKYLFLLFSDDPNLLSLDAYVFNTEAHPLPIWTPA
Chain of UniProt Q5MNZ9 (Q5MNZ9 whole entry): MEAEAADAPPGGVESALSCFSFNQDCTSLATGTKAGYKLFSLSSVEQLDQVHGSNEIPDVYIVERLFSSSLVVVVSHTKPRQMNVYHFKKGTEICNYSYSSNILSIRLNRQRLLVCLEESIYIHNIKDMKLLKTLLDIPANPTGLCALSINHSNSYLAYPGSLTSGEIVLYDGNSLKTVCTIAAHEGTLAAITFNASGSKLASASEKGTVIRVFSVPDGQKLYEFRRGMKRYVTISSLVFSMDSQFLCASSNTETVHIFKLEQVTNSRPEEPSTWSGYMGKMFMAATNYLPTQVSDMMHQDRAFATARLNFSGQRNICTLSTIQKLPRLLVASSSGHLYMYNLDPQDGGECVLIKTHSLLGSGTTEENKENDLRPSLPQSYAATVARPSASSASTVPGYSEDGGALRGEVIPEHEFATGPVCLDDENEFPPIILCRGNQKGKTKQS
Chain of UniProt Q8IZ73 (Q8IZ73 whole entry): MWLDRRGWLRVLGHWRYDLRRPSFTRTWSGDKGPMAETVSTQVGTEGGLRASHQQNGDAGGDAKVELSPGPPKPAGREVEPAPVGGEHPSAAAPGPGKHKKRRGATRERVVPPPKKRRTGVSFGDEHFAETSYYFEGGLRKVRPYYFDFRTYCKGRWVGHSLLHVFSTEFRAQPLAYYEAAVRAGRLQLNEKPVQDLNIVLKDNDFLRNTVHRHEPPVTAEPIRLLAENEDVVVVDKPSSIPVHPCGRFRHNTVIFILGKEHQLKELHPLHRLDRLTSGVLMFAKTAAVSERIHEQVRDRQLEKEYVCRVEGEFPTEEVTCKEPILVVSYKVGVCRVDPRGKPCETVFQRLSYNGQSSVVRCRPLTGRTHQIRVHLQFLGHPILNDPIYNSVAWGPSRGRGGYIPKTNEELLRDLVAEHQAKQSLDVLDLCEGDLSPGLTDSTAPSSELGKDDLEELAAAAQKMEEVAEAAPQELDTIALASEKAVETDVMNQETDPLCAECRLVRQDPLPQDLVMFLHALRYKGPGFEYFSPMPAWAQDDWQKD
Chain of UniProt Q8IZ81 (Q8IZ81 whole entry): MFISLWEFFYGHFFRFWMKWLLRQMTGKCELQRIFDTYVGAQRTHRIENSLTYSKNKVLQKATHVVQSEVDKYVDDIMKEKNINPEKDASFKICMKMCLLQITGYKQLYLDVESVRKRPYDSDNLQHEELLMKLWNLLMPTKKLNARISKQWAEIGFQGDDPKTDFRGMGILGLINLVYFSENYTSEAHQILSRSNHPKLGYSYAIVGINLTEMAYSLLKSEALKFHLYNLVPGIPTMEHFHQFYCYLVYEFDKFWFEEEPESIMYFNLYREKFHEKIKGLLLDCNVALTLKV
Chain of UniProt O15270 (O15270 whole entry): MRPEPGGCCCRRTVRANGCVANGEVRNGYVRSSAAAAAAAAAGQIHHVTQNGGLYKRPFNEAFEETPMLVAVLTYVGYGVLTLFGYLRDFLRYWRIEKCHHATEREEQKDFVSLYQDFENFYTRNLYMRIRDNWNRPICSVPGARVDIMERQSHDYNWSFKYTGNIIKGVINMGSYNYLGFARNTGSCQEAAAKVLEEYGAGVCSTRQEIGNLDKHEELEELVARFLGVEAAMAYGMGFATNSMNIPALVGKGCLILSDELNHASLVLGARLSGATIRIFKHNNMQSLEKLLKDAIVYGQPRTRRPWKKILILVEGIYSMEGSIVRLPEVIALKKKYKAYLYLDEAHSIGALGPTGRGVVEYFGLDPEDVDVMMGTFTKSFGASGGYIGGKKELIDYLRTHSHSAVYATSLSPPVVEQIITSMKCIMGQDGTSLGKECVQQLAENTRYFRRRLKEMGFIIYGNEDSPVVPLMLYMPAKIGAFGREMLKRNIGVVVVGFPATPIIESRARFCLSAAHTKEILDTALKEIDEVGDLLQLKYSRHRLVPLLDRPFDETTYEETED
Chain of UniProt P62942 (P62942 whole entry): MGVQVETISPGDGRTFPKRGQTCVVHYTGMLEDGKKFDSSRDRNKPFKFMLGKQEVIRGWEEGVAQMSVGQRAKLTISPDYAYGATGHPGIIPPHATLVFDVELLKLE

Target	thermal stability z-score [1, 3]	thermal stability z-score ([1]; arsenate co-treatment: none)	thermal stability z-score [2]
NAB2 (UniProt Q15742)	-0.402	-2.02	1.18
ECHS1 (UniProt P30084)	-0.919	-0.57	-1.22
SCAMP4 (UniProt Q969E2)	0.196	0.377	0.0173
CETN2 (UniProt P41208)	0.767	0.569	0.798
SACM1L (UniProt Q9NTJ5)	-0.145	-0.499	0.448
WIPI1 (UniProt Q5MNZ9)	-0.175	-0.814	0.18
DIP2B (UniProt Q9P265)	0.206	0.147	-0.222
FAT1 (UniProt Q14517)	-1.6	-1.48	0.0899
PSMG1 (UniProt O95456)	1.07	0.507	4.18
BOD1L1 (UniProt Q8NFC6)	0.583	0.352	-0.589
DPCD (UniProt Q9BVM2)	-0.929	-0.513	0.0166
POLR2G (UniProt P62487)	0.343	0.681	-1.1
ELMOD2 (UniProt Q8IZ81)	-0.403	-0.238	0.198
DERL1 (UniProt Q9BUN8)	-0.177	-0.185	-0.00515
POLR3C (UniProt Q9BUI4)	0.213	0.0462	-0.411
CHEK2 (UniProt O96017)	-0.0379	-0.222	-0.161
NSMCE2 (UniProt Q96MF7)	0.278	0.339	0.541
UPF3B (UniProt Q9BZI7)	-0.0795	0.00475	0.667
RBM8A (UniProt Q9Y5S9)	-0.156	0.28	0.0981
LPIN2 (UniProt Q92539)	0.528	0.214	0.00612
NQO1 (UniProt P15559)	0.825	0.331	0.174
ISY1 (UniProt Q9ULR0)	0.997	0.693	-0.872
NBAS (UniProt A2RRP1)	0.00568	0.0731	-0.0529
TTC38 (UniProt Q5R3I4)	1.43	1.43	1.01
CCDC137 (UniProt Q6PK04)	-0.531	-0.941	-1.66
MCM7 (UniProt P33993)	-0.43	-0.294	-0.228
UGT8 (UniProt Q16880)	0.0311	-0.0518	0.235
ABCD1 (UniProt P33897)	-0.752	-0.422	0.118

Target	thermal stability z-score [1, 3]	thermal stability z-score ([1]; arsenate co-treatment: none)	thermal stability z-score [2]
AK2 (UniProt P54819)	-0.717	-0.168	-0.84
RPUSD2 (UniProt Q8IZ73)	-0.528	0.461	0.29
PTBP1 (UniProt P26599)	1.1	1.82	0.184
MRPS5 (UniProt P82675)	-0.158	0.0282	0.0198
UQCRQ (UniProt O14949)	0.971	0.797	1.28
GTF2B (UniProt Q00403)	-0.0775	0.338	-1.93
FKBP1A (UniProt P62942)	0.374	0.262	-1.96
TH1L|NELFCD	-0.0628	-0.0836	0.0938
CBX8 (UniProt Q9HC52)	0.035	0.14	-0.0579
POLR2H (UniProt P52434)	0.98	1.03	-0.373
PIK3C2A (UniProt O00443)	-0.267	0.213	0.167
MAN1B1 (UniProt Q9UKM7)	-0.361	-0.286	0.103
PNKP (UniProt Q96T60)	-0.0218	-0.0196	-0.329
VRK2 (UniProt Q86Y07)	-0.383	-0.335	-0.6
ARL6IP4 (UniProt Q66PJ3)	0.727	-0.0769	0.572
FUT8 (UniProt Q9BYC5)	-0.561	-0.0456	0.521
B2M (UniProt P61769)	-0.115	-0.125	1.06
CAMSAP2 (UniProt Q08AD1)	-0.52	-0.353	-1.05
RAP1A (UniProt P62834)	0.141	-0.173	-0.254
TDP1 (UniProt Q9NUW8)	0.0423	-0.0239	-0.00328
CENPH (UniProt Q9H3R5)	-0.976	0.153	0.184
TAB1 (UniProt Q15750)	-0.188	-0.291	-0.294
CMPK1 (UniProt P30085)	-0.127	0.136	2.02
TUBB2A (UniProt Q13885)	0.383	0.458	0.692
SPTLC2 (UniProt O15270)	-0.0734	-0.585	-0.25
WIPI2 (UniProt Q9Y4P8)	0.0343	0.463	-0.0998
CCND3 (UniProt P30281)	0.241	0.374	-0.0207
